The source of these data is patent publication US11059830B2, “Compounds that participate in cooperative binding and uses thereof” (Revolution Medicines, Inc., priority 2015, dated 2021).

What is called koff is the first-order rate constant of dissociation.

In assay [1] the target is CEP25029.2 (residues 1982-2231) (Homo sapiens (Human), UniProt P62942+Q9BV73). Kind of assay: SPR binding of CEP250 (analyte) to immobilized FKBP12-Compound 2 binary complex. The following applies: FKBP12/Compound 2 complex binding to CEP25029.2, SPR, 1 μM compound. The method, then: (§1) This protocol utilizes Surface Plasmon Resonance (SPR) as a method to determine kinetics (KD, Ka, Kd) for the binding of CEP250 (analyte) to immobilized FKBP12-Compound 2 binary complex (ligand).
(§2) Compound 2 in 100% DMSO (in-house), 10×HBS-P+ buffer (GE Healthcare BR-1006-71), Assay buffer (1×HBS-P+ buffer, 1% DMSO, 1 μM Compound 2), 12×HIS tagged FKBP12 (in-house), CEP25029.2 (residues 1982-2231) and CEP25011.4 (residues 2134-2231) (in-house).
(§3) Experiments are performed at 25° C. Stock solution of 12×HIS tagged FKBP12 is diluted to 100 nM in assay buffer containing 1 μM Compound 2 (1% DMSO final). Approximately 200-400 RU of FKBP12 is immobilized on one of two flow cells of an activated NTA chip. The second flow cell is not activated as a reference for non-specific interaction of the analyte to the sensor chip. Various concentrations of CEP250 (1 nM-1 μM range), serially diluted into the same assay buffer containing 1 μM Compound 2 (1% DMSO final), are injected onto the FKBP12 surface and reference surface at a flow rate of 10 μl/min. The surface is regenerated between analyte injections with 350 mM EDTA.
(§4) The BiaEvaluation software program is used for data fitting. All data is reference subtracted against both the reference flow cell and a buffer injection. For kinetic analyses, data is locally fit to a 1:1 interaction model.
For orientation: In SPR one partner is held on a chip, and binding of the other changes the refractive index at the surface.

For assay [2], the target named is CEP25011.4 (residues 2134-2231) (Homo sapiens (Human), UniProt P62942+Q9BV73). Described as above. Particulars: FKBP12/Compound 2 complex binding to CEP25011.4, SPR, 1 μM compound. The procedure:
as §1, §2, §3, §4

The structures appear in SMILES notation.

Sequence of CEP25029.2 (residues 1982-2231) (Q9BV73 1982-2231): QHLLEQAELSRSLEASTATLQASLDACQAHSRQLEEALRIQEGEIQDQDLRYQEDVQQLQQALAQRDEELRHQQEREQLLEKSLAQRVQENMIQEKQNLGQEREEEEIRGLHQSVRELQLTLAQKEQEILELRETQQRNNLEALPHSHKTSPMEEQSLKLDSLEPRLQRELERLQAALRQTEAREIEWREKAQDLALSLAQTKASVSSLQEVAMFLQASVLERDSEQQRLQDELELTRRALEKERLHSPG
Sequence of CEP25029.2 (residues 1982-2231) (P62942 whole entry, the tested form may be a part): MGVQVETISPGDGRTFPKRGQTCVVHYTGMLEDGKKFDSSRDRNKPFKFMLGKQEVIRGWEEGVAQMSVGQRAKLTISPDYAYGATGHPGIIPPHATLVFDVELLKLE
Sequence of CEP25011.4 (residues 2134-2231) (Q9BV73 2134-2231): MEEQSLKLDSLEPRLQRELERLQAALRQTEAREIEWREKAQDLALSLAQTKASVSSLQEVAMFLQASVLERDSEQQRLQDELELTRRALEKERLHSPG
Sequence of CEP25011.4 (residues 2134-2231) (P62942 whole entry, the tested form may be a part): as the sequence (P62942 whole entry, the tested form may be a part) above

In assay [1], `CC[C@H](Cc1ccccc1)[C@@H]1/C=C/C/C=C/C[C@@H](C)[C@H](O)[C@@H](C)[C@@H]2CC[C@@H](C)C(=O)C(O)(O2)C(=O)N2CCCC[C@H]2C(=O)O1` [Compound 2] came in with a koff of 9.25e-05 s⁻¹. The kon in assay [1] (read-out: Ka) stood at 311000 M⁻¹ s⁻¹; in assay [2] (read-out: Ka), 571000 M⁻¹ s⁻¹. In addition, the “Kd” value in assay [2] stood at 0.00309 s⁻¹.
